Active and inactive are the calls of the source.

In experiment [1] the target is E3 ubiquitin-protein ligase Mdm2 (Homo sapiens, UniProt Q00987). Put plainly: MDM2-luc reporter signal enhancers, multi-concentration potency testing, MDM2 ubiquitin-protein ligase inhibitor program, whole-cell format, luminescence detection, 384-well microplate (AID 1394).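 Further: MDM2 E3 inhibitors raise luminescence so EC50 is for signal enhancement.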 Type of experiment: functional.
The subject of experiment [2] is HEK293. Put plainly: Fluorescence-based counterscreen for potentiators or agonists of NPY-Y2: cell-based high-throughput dose response assay to identify inhibitors of cyclic nucleotide gated ion channel (CNGC) activity. In this assay, the parental HEK293 cell line transfected with a cyclic-nucleotide gated ion channel (CNGC)-based cAMP sensor is used to measure inhibition of isoproterenol-induced CNGC activity by test compound. Format: functional. The conditions noted are these: Homo sapiens.

The target of experiment [3] is T1, Neuropeptide Y receptor type 2 (Homo sapiens, UniProt P49146).
T1 sequence (P49146 whole entry): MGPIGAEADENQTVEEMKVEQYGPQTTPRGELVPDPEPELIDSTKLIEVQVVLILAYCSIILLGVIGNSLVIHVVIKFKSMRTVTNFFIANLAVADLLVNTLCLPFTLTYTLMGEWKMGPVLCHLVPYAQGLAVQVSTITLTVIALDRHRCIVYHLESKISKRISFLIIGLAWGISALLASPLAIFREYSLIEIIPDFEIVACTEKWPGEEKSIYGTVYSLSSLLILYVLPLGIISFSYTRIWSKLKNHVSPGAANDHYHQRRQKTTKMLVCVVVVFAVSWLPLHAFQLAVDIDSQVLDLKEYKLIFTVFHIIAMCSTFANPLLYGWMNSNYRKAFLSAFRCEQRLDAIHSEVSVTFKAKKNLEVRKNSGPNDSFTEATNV
Description: Fluorescence-based cell-based high-throughput dose response assay for agonists of NPY-Y2. [Related pubchem assays: 1703 (Screening assay (CNGC inhibitors).), 1359 (Screening assay (NPY-Y2 potentiators or agonists).), 1304 (Screening assay (NPY-Y1 potentiators or agonists).), 1710 (Screening assay (NPY-Y2 agonists).), 1791 (Summary AID.)]. Format: functional.

Experiment [4] has as its target T2, Neuropeptide Y receptor type 1 (Homo sapiens, UniProt P25929).
T2 sequence (P25929 whole entry): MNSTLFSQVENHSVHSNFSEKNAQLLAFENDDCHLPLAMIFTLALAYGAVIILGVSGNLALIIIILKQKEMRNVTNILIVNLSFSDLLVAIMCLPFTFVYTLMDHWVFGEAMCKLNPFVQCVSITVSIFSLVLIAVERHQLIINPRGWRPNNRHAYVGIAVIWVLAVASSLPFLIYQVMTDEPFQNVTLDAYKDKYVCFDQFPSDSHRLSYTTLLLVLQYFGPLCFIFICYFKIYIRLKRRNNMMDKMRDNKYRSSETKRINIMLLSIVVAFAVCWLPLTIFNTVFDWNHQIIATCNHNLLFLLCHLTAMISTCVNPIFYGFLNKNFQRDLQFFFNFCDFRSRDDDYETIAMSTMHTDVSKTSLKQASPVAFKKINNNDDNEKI
Put plainly: Fluorescence-based counterscreen for agonists of NPY-Y2: cell-based high-throughput dose response assay for agonists of NPY-Y1. Format: functional.

Experiment [5] is described as follows: M. tuberculosis H37Rv growth inhibitors, H37Rv strain (AID 1626). Format: functional.
The target of a further experiment is T3, Protein skinhead-1 (Caenorhabditis elegans, UniProt P34707).
T3 sequence (P34707 whole entry): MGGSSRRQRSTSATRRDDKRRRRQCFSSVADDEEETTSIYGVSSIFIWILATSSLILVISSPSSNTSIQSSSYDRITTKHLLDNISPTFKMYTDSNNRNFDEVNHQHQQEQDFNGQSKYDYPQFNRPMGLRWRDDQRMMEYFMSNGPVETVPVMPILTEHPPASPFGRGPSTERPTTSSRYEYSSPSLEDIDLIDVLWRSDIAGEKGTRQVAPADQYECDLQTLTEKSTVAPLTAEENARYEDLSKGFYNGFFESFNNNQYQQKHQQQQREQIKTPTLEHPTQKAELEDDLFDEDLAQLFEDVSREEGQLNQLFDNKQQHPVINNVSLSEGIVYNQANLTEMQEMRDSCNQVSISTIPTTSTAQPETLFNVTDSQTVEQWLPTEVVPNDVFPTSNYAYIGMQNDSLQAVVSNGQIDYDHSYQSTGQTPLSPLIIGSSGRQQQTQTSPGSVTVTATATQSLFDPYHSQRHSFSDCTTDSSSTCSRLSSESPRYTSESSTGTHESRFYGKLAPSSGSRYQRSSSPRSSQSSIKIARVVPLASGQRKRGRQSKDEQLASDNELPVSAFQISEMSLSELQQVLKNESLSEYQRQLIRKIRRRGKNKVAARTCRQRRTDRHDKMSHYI
Type of experiment: functional.

Experiment [6] concerns the target Luciferin 4-monooxygenase (Photinus pyralis, UniProt P08659). Description: Counter Screen for Luciferase-based Assay Positives. [Related pubchem assays: 620, 618, 411 ].
The next experiment relates to HT-1080. Put plainly: HT1080 cell viability loss – fluorescence readout (AID 620). Particulars: Homo sapiens. Type of experiment: functional, cell-based.
In experiment [7] the target is T4, Acyl-homoserine lactone acylase PvdQ (Pseudomonas aeruginosa (strain LESB58), UniProt Q9I194).
T4 sequence (Q9I194 whole entry): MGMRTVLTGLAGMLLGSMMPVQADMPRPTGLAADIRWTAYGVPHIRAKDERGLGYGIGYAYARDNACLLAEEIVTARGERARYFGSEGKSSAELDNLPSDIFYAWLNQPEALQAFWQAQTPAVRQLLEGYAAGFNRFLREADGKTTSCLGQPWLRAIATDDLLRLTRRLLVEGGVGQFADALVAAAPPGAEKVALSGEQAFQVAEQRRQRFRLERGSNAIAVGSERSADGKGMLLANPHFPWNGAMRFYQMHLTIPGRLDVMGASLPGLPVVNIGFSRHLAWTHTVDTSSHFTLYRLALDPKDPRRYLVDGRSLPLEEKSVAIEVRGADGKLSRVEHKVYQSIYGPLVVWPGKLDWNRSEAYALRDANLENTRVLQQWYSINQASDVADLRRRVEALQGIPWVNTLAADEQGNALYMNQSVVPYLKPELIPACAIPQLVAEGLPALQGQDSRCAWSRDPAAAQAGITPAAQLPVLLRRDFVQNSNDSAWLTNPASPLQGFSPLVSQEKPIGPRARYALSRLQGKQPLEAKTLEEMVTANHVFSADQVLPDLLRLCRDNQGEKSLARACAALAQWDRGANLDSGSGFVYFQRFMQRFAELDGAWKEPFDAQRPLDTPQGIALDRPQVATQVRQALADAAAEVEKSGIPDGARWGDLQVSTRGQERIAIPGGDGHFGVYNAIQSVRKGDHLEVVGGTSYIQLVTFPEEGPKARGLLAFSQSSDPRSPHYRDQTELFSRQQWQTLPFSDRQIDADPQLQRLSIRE
Put plainly: PvdQ acylase enzyme activity blockers – biochemical, fluorescence, plate reader and imaging, cherry-picks, dose response (AID 493231).

For experiment [8], the system named is HEK293. Description: EBV LMP1 TES2 canonical NF-kB signalling blockers – cell-based, HEK293, luciferase, cherry-pick, dose response (AID 588343). The conditions noted are these: Homo sapiens. Format: functional.
Experiment [9] addresses SWI/SNF-related matrix-associated actin-dependent regulator of chromatin subfamily A member 2 (Homo sapiens, UniProt P51531). Put plainly: Luminescence-based cell-based high throughput dose response assay to identify activators of the function of SWI/SNF related, matrix associated, actin dependent regulator of chromatin, subfamily a, member 2 (SMARCA2, BRM). Type of experiment: functional.

A short description of experiment [10]: Counterscreen for activators of the function of SWI/SNF related, matrix associated, actin dependent regulator of chromatin, subfamily a, member 2 (SMARCA2, BRM): Luminescence-based cell-based high throughput dose response assay to identify non-selective compounds using the VP16 reporter assay. Format: functional.
Experiment [11] deals with Streptococcus sp. 'group A'. Description: Streptococcus pyogenes SK(-)GAS viability under kanamycin – luminescence, BacTiterGlo, confirmation, counter-screen for streptokinase expression inhibitor project, dose response (AID 1900). Format: functional, organism-based.
Experiment [12] can be described thus: mitochondrial function rescue without frataxin homolog – Friedreich's ataxia, plus single-dose screen, dose response (AID 1465).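 Further: yeast depleted of Yfh1p frataxin homolog grown on glycerol needing respiration; WST-1 tetrazolium dye reduction as measure of cellular dehydrogenase metabolic activity.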 Format: functional.
A further experiment concerns Streptococcus. Description: GAS UMAA2166 growth inhibition – luminescence, BacTiterGlo, counter-screen for streptokinase expression inhibitor project, dose response (AID 1915).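 Further: potency for reduction of bacterial viability or growth.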 Type of experiment: functional, organism-based.
The target of another experiment is Ephrin type-A receptor 4 (Mus musculus, UniProt Q03137). Description: EphA4 ligand-binding antagonists – biochemical, colorimetric, mouse EphA4, primary screen (AID 689). Format: functional.
Chain of Ephrin type-A receptor 4 (Q03137 whole entry): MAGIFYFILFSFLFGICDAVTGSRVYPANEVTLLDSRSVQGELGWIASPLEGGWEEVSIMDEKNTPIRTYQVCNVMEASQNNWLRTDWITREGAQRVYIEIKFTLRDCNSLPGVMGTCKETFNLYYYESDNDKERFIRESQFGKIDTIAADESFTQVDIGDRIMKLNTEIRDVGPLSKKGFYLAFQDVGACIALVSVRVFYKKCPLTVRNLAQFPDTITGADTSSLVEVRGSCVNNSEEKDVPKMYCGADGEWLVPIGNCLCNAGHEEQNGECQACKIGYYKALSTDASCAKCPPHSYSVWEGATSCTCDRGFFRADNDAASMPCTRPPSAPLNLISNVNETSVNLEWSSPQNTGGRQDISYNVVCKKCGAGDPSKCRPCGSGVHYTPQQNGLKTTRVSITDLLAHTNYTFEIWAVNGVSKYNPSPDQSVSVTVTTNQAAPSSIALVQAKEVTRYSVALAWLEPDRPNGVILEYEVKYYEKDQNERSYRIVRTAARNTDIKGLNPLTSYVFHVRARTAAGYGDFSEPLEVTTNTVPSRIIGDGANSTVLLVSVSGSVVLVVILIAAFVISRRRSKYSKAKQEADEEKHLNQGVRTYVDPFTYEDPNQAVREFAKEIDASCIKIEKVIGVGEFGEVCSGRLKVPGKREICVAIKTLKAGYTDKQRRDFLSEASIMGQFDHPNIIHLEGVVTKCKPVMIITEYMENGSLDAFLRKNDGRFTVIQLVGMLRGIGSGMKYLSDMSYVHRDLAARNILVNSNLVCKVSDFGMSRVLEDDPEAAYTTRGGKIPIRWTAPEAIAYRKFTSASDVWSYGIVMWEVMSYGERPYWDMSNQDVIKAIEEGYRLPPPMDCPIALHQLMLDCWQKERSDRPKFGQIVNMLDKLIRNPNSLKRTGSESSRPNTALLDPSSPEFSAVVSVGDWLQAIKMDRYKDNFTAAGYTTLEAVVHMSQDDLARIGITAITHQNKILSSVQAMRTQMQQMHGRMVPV
The target in a further experiment is NADPH oxidase 1 (Homo sapiens, UniProt Q9Y5S8). Format: functional, cell-based.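 Further: Cell-based assay with luminescence read-out, IC50 derived from inhibitor dose-response curves; intracellular ROS from endogenous NOX1 in intact HT29 colon cancer cells; potency of inhibitors that lower the ROS luminescence signal.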
Chain of NADPH oxidase 1 (Q9Y5S8 whole entry): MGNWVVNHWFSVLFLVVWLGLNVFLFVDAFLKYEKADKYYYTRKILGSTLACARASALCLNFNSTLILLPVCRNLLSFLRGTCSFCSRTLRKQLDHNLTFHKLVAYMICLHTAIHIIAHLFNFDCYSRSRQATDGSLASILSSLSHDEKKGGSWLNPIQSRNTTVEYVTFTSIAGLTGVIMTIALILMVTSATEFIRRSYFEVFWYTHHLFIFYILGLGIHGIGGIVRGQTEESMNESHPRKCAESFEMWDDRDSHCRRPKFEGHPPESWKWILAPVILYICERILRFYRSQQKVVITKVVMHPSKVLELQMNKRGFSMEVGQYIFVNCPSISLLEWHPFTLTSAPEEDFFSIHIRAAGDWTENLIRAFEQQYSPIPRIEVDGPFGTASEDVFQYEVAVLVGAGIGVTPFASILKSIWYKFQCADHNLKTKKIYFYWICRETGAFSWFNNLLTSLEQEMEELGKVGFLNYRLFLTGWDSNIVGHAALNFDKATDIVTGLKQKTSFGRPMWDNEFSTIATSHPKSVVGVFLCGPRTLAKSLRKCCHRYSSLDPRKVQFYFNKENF
In experiment [13] the target is Heat shock protein HSP 90-alpha (Homo sapiens, UniProt P07900). Description: Luminescence-based dose response biochemical high throughput screening assay for inhibitors of the Heat Shock Protein 90 (HSP90). [Related pubchem assays: 1831 (Summary AID.), 1846 (Confirmation screen.), 1789 (Primary screen.)].
In experiment [14] the target is Peroxisome proliferator-activated receptor gamma/Nuclear receptor corepressor 2 (Homo sapiens, UniProt P37231+Q9Y618). Put plainly: Counterscreen for NR2E3 inverse agonists: TR-FRET-based biochemical high throughput dose response assay to identify inverse agonists of the interaction between peroxisome proliferator-activated receptor gamma (PPARg) and nuclear receptor co-repressor 2 (NCOR2). Format: functional.

For experiment [15], the target named is Photoreceptor-specific nuclear receptor (Homo sapiens, UniProt Q9Y5X4). Description: ligands suppressing NR2E3 nuclear receptor activity – biochemical, TR-FRET, dose response (AID 463256). Format: functional.
Chain of Photoreceptor-specific nuclear receptor (Q9Y5X4 whole entry): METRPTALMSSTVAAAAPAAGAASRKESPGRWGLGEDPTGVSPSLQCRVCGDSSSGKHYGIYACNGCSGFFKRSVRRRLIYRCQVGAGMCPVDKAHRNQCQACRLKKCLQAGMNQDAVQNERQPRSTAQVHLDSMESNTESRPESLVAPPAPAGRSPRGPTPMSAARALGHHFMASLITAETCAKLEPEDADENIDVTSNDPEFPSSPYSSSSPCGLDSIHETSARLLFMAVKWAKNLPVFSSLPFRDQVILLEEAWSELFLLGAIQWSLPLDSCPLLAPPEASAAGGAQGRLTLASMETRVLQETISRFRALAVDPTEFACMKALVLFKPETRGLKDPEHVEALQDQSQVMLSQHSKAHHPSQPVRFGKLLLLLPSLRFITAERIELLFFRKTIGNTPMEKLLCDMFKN

Chain of E3 ubiquitin-protein ligase Mdm2 (Q00987 whole entry): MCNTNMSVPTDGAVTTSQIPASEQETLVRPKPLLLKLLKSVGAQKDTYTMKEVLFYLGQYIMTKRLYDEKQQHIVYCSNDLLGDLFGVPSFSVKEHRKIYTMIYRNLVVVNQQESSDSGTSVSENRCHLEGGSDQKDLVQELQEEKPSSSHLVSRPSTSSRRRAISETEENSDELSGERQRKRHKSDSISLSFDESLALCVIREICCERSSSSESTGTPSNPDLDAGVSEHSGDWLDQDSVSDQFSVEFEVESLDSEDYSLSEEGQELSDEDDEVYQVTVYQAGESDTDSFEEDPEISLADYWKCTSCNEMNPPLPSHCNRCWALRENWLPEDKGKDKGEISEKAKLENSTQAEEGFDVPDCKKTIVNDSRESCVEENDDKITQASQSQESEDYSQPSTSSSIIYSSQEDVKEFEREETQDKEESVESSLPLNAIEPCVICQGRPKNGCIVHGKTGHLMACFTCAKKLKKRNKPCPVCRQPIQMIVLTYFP
Chain of Luciferin 4-monooxygenase (P08659 whole entry): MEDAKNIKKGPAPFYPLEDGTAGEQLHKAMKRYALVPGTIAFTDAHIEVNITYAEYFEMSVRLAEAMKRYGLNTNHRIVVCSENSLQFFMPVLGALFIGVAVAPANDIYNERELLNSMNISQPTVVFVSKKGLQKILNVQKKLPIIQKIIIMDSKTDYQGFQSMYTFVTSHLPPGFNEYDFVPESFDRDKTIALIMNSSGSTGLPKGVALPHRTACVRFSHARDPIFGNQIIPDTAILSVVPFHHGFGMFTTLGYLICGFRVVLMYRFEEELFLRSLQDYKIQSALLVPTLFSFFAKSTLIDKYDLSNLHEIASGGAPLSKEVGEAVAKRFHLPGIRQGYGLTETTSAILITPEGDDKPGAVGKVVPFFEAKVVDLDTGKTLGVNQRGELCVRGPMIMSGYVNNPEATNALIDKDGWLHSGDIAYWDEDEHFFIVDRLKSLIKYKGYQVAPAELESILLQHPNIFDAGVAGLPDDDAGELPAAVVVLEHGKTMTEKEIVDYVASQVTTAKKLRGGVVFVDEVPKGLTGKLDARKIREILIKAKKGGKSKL
Chain of SWI/SNF-related matrix-associated actin-dependent regulator of chromatin subfamily A member 2 (P51531 whole entry): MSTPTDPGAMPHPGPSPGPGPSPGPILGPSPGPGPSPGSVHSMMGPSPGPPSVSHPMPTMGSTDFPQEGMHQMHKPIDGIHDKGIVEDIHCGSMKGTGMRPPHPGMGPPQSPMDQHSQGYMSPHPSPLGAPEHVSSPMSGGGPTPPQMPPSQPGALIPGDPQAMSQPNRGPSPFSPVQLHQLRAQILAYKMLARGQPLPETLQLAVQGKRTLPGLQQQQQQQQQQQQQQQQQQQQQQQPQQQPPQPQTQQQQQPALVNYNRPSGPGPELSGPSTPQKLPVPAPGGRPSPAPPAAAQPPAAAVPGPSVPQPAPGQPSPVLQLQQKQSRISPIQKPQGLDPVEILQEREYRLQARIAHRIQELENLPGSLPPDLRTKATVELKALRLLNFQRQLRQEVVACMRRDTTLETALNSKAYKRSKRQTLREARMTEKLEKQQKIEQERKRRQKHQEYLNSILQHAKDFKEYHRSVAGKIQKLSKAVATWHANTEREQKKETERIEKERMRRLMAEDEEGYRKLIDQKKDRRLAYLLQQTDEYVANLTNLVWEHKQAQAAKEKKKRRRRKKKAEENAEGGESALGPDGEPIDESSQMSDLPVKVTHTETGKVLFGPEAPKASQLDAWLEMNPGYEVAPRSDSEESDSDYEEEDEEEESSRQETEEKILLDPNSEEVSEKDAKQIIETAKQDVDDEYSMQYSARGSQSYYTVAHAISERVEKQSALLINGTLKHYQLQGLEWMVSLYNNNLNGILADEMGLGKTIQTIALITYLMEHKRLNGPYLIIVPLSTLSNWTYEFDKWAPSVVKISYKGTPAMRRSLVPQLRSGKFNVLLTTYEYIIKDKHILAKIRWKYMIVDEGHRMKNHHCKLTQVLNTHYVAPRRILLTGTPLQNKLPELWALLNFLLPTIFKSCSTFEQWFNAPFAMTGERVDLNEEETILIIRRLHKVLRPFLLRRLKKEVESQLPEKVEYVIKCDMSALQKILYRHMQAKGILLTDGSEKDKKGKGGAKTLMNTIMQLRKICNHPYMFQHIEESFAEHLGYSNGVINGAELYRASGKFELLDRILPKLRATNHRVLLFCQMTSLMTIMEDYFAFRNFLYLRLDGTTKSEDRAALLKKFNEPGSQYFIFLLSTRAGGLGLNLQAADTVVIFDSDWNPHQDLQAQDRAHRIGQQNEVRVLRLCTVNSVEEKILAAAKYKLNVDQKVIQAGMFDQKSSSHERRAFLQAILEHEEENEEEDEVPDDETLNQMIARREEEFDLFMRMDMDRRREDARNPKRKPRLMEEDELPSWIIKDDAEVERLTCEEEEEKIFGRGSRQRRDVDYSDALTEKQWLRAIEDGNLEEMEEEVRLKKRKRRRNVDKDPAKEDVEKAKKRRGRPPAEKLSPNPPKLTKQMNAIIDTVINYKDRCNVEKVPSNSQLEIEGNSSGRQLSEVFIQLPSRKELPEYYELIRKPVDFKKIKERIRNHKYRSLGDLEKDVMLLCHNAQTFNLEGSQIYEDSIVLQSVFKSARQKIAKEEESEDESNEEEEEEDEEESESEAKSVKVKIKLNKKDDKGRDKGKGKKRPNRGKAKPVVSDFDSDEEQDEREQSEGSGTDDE

`Cc1ccc(S(=O)(=O)N2CCN(C(=O)CC(C)C)CC2)cc1`: the EC50 in experiment [1] was 7.17 µM (not active).

For the compound `Cc1cc2c(cc1C)N(C(=O)CSC1=NCCS1)C(C)(C)c1ssc(=S)c1-2`, the EC50 in the experiment with HEK293 [2] is > 35.4 µM (not active); in experiment [3], 32 µM (not active); in experiment [4], 22.2 µM (not active).

`COc1ccccc1NC(=O)CN1CCN(C2c3ccccc3-c3ccccc32)CC1`: the IC50 was > 100 µM (active) in experiment [5] and > 100 µM (inactive) on Protein skinhead-1.

For `Cc1cc(C)cc(OCc2nnc(SCC(=O)OC(C)C)o2)c1`, in experiment [5], the half-inhibitory concentration (IC50) was > 100 µM (active).

As to `CCOc1ccc(NC(=O)c2cnsn2)cc1`, the half-maximal effective concentration (EC50) in [6] was 48.3 µM (active); in the experiment on HT-1080, > 50 µM (not active); in [9] it was > 91.2 µM (inactive); in experiment [10] it was > 91.2 µM (inactive). For the same compound, the results for the AC50 (in experiment [7]; with HEK293 [8]) were 81 µM (active) and 5.39 µM (active), respectively.

On to `COc1cc([N+](=O)[O-])cc(/C=N\NC(=O)C2COc3ccccc3O2)c1O` (stereo not given), for which the EC50 was 2.97 µM (active) in experiment [11], > 100 µM (active) in [12] and 3.33 µM (active) with Streptococcus.

Take `CCc1cccc2c(C(=O)CSc3nnc(-c4ccoc4C)n3C)c[nH]c12`: the IC50 on Ephrin type-A receptor 4 is 12.7 µM (active).

`O=[N+]([O-])c1cc(C(F)(F)F)cc([N+](=O)[O-])c1NCCN=C(S)Nc1ccc(Cl)c(Cl)c1`: the half-maximal effective concentration (EC50) in the experiment on HEK293 [2] is 7.47 µM (active); in experiment [11], 4.03 µM (active); in the experiment with Streptococcus it was 6.5 µM (active).

`O=C(Oc1ccc([N+](=O)[O-])cc1)c1cc2ccccc2s1`: the IC50 at NADPH oxidase 1 is given as > 17 µM (not active).

With `O=C(NNC(=O)Nc1ccc(Cl)cc1)Nc1ccc(Cl)cc1`, the concentration for half-maximal inhibition (IC50) against NADPH oxidase 1 is > 17 µM (not active).

On to `Cc1cc2ccccc2n1CCNC(=O)c1ccccc1`, for which the IC50 was 2.52 µM (active) in experiment [13], 32.7 µM (active) at Ephrin type-A receptor 4 and > 100 µM (inactive) on Protein skinhead-1.

As for `O=c1c2ccccc2nnn1CSc1nnc2sc3ccccc3n12`, the EC50 was 0.52 µM (active) in [6] and > 50 µM (not active) in the experiment with HT-1080.

Regarding `CCOC(=O)Cn1nnnc1C`, the EC50 in experiment [1] is on record as 827 µM (not active).

Take `CC(=O)c1sc(NC(=O)CCCOc2ccc(Cl)cc2)nc1C`: the IC50 in experiment [14] was 3.5 µM (active); in [15] it was 4.49 µM (active).

The values are drawn from ChEMBL document CHEMBL1201862, “PubChem BioAssay data set” (2004).
